Data taken from paper PMC4301037, “Identification and Structure–Function Analysis of Subfamily Selective G Protein-Coupled Receptor Kinase Inhibitors” (ACS Chemical Biology, 2014).
Like-named read-outs stand apart in the source and are kept apart here.

How the values were obtained:
[1] = biological target: T1, human GRK2S670A (Homo sapiens, UniProt P25098, S670A); experiment: Primary DSF (differential scanning fluorimetry) inhibitor screen, GRK2; assay type: binding; conditions: 10 μM compound; for ΔTm at 10 µM: read-out: ΔTm, primary screen, GRK2
T1 construct: when using full-length kinases as the receptor[37] instead of isolated kinase domains; made in house
T1 sequence (P25098 1-689 S670A): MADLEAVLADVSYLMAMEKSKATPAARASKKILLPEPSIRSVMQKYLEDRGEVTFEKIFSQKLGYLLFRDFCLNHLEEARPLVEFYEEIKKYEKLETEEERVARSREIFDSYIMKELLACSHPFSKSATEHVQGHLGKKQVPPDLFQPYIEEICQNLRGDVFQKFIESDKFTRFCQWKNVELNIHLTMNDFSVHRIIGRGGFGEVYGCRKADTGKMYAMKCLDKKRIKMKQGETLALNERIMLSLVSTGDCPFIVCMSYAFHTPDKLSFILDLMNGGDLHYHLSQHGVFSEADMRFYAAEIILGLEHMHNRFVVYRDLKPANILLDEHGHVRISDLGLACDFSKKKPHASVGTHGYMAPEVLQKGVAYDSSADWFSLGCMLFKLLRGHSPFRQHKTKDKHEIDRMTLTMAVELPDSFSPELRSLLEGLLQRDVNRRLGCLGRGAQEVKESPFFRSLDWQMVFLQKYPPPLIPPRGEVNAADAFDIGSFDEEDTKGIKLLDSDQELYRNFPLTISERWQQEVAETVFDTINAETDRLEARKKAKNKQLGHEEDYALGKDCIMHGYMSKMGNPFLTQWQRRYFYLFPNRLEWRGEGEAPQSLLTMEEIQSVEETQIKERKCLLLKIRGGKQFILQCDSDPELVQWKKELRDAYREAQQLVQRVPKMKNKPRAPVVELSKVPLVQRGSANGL

[2] = biological target: T2, GRK1 (Bos taurus, UniProt P28327); experiment: In vitro phosphorylation assay (tubulin, 5 μM ATP), GRK1; assay type: biochemical, bovine
T2 construct: Bovine GRK1_1–535, bovine and human GRK2S670A; made in house
T2 sequence (P28327 1-535): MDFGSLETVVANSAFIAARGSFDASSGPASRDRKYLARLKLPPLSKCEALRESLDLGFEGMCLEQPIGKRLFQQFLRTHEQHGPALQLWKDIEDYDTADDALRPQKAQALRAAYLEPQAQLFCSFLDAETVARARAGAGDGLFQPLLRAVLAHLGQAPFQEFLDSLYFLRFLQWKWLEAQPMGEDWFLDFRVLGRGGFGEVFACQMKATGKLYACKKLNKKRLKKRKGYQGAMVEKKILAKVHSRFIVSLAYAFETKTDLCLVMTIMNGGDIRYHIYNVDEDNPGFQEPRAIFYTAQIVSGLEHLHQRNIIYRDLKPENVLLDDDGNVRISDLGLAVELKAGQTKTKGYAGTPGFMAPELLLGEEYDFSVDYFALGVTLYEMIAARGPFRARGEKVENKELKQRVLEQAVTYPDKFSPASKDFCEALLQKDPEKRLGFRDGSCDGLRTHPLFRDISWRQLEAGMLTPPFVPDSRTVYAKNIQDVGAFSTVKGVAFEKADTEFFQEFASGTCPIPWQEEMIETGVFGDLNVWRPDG

[3] = biological target: T3, GRK5 (Bos taurus, UniProt P43249); experiment: DSF retest (confirmation), GRK5; assay type: binding, bovine; conditions: for GRK5 Tm: 0.2 mg mL^–1 kinase; for GRK5 ΔTm: relative to intrinsic melting point of the kinase
T3 construct: when using full-length kinases as the receptor[37] instead of isolated kinase domains; made in house
T3 sequence (P43249 whole entry, the tested form may be a part): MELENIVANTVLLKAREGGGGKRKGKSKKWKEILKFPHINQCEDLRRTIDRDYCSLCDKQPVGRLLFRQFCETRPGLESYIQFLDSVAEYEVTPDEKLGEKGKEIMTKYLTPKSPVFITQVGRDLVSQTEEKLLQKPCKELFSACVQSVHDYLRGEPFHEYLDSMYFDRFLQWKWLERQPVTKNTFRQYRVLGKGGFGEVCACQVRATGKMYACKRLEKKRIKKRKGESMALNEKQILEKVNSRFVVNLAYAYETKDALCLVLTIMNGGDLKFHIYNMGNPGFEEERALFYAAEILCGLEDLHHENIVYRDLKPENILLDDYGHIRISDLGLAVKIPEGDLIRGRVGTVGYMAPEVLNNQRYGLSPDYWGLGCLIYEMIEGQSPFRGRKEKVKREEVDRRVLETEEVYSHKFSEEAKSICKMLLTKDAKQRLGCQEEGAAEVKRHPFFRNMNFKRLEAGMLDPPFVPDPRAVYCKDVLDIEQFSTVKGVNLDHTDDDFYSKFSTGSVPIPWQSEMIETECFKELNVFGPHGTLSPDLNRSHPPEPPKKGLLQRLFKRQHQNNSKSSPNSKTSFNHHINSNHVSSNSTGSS

[4] = test system: GRK1, 2, and 5 and PKA; experiment: Ssel selectivity score calculated from inhibition of GRK1, 2, 5 and PKA; conditions: selectivity score from inhibition of GRK1, 2, 5 and PKA; <0.5 selective
[5] = biological target: T4, GRK2 (Bos taurus, UniProt P21146, S670A); experiment: In vitro phosphorylation assay (tubulin, 5 μM ATP), GRK2; assay type: biochemical, bovine; conditions: for IC50: read-out: GRK2 log IC50 (converted)
T4 construct: made in house
T4 sequence (P21146 1-689 S670A): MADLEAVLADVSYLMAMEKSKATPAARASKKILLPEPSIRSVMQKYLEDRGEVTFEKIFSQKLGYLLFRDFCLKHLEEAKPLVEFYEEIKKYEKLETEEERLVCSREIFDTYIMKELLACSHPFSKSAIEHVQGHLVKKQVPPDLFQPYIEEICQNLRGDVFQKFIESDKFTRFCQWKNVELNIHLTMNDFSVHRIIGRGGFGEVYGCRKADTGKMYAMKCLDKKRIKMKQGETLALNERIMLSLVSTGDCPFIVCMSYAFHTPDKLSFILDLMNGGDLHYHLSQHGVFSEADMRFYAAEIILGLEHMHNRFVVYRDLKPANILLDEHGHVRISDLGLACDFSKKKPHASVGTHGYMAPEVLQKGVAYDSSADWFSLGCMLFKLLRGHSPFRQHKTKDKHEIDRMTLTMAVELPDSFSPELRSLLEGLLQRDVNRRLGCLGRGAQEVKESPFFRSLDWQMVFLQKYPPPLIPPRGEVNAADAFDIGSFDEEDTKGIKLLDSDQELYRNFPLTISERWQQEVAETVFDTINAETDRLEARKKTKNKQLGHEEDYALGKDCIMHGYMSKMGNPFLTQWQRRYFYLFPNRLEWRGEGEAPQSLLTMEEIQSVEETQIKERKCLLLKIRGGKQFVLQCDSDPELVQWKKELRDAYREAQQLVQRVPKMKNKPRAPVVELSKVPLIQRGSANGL

[6] = biological target: T5, bovine GRK5 (Bos taurus, UniProt P43249); experiment: Primary DSF inhibitor screen, GRK5; assay type: binding; conditions: 10 μM compound; for ΔTm at 10 µM / ΔTm, primary screen, GRK5: 2 μM kinase, relative to DMSO control; for ΔTm at 10 µM: read-out: ΔTm, primary screen, GRK5; for rank in the primary screen, GRK5: rank ordering of compounds in primary DSF screen
T5 construct: when using full-length kinases as the receptor[37] instead of isolated kinase domains; made in house
T5 sequence (P43249 whole entry, the tested form may be a part): as the sequence (P43249 whole entry, the tested form may be a part) above

[7] = biological target: T6, GRK2 (Homo sapiens, UniProt P25098, S670A); experiment: DSF retest (confirmation), GRK2; assay type: binding; conditions: for GRK2 Tm: 0.2 mg mL^–1 kinase; for GRK2 ΔTm: relative to intrinsic melting point of the kinase
T6 construct: made in house
T6 sequence (P25098 1-689 S670A): T1 sequence (P25098 1-689 S670A)

[8] = biological target: T7, protein kinase A (PKA) (Mus musculus, UniProt P05132); experiment: DSF retest (confirmation), PKA; assay type: binding; conditions: for PKA Tm: 0.2 mg mL^–1 kinase; for PKA ΔTm: relative to intrinsic melting point of the kinase
T7 construct: His tag (inferred from pET15b vector and Ni-NTA column) (N); host or cells: E. coli Rosetta(DE3)pLysS
Description: Fourteen compounds (Figure 1a–c), including all GRK2 hits except staurosporine, and the most stabilizing pyrrolopyrimidine-containing compounds were obtained from GSK and retested using DSF on GRKs representing each vertebrate subfamily (GRK1, 2, and 5) (Table 1). […] The ability of these compounds to shift the Tm of the related AGC family kinase member protein kinase A (PKA) was also assessed (Table 1). In no case was ΔTm greater for PKA than for one of the tested GRKs. […]. There was no correlation for GRK1 (Figure 2c).
DSF was conducted using a ThermoFluor plate reader (Johnson & Johnson) in a buffer containing 20 mM HEPES, pH 7.0, 5 mM MgCl2, 2 mM DTT, and 1 mM CHAPS with 0.2 mg mL^–1 final concentration of GRK or PKA and 100 μM 1-anilinonaphthalene-8-sulfonic acid.[14]

[9] = biological target: T3, GRK5; experiment: In vitro phosphorylation assay (tubulin, 5 μM ATP), GRK5; assay type: biochemical, bovine; conditions: for IC50: read-out: GRK5 log IC50 (converted)
[10] = biological target: T8, PKA (Mus musculus, UniProt P05132); experiment: PKA inhibition assay (ADP-Glo, CREBtide, 100 μM ATP); assay type: biochemical
T8 construct: His tag (inferred from pET15b vector and Ni-NTA column) (N); host or cells: E. coli Rosetta(DE3)pLysS

[11] = biological target: T2, GRK1; experiment: DSF retest (confirmation), GRK1; assay type: binding, bovine; conditions: for GRK1 Tm: 0.2 mg mL^–1 kinase; for GRK1 ΔTm: relative to intrinsic melting point of the kinase
[12] = test system: 224 kinases; set-up: method as in ChEMBL database; conditions: ref ChEMBL database; cited from earlier work
[13] = 2 μM kinase, relative to DMSO control
[14] = read-out: GRK1 log IC50 (converted)
[15] = logarithm of IC50 (−3.3 corresponds to 0.5 mM, footnote c), 438 nM PKA, 100 μM ATP, CREBtide, read-out: PKA log IC50 (converted)

| SMILES | ΔTm at 10 µM [1, 13] [°C] | IC50 [2, 14] [µM] | GRK5 Tm [3] [°C] | GRK5 ΔTm [3] [°C] | Ssel [4] | IC50 [5] [µM] | GRK2 fold (increase in potency relative to paroxetine) [5] [fold] | ΔTm at 10 µM [6] [°C] | GRK2 Tm [7] [°C] | GRK2 ΔTm [7] [°C] | PKA Tm [8] [°C] | PKA ΔTm [8] [°C] | GRK5 fold (increase in potency relative to paroxetine) [9] [fold] | IC50 [10, 15] [µM] | GRK1 Tm [11] [°C] | GRK1 ΔTm [11] | GRK1 fold (increase in potency relative to paroxetine) [2] [fold] | ΔTm, primary screen, GRK5 [6] [°C] | rank in the primary screen, GRK5 [6] | IC50 [9] [µM] | other results |
| --- | --- | --- | --- | --- | --- | --- | --- | --- | --- | --- | --- | --- | --- | --- | --- | --- | --- | --- | --- | --- | --- |
| CC1=C(C(=O)Nc2ccc3[nH]ncc3c2)C(c2ccc(Cl)c(Cl)c2)CC(=O)N1 (stereo not drawn) [GSK299115A] | 4.83 | > 1000 | 28.1 | 1.3 | 0.360 | 3.16 | 0.40 | 3.55 | 48.3 | 10.7 | 49.5 | 4.1 | 1.6 | 63.1 | 23.4 | 3.5 °C |  |  |  |  | ΔTm, primary screen, GRK2 [1, 13]: 4.8 °C; rank in the primary screen, GRK2 ([1]; rank ordering of compounds in primary DSF screen): 4; IC50 ([10]; read-out: IC50 against PKA): < 100 µM |
| CCCN1CCC(c2ccc(Nc3nc(Nc4cc(F)ccc4C(N)=O)c4cc[nH]c4n3)c(OC)c2)CC1 [GSK1326255A] | 3.29 |  | 29.3 | 2.5 | 0.586 | 7.94 |  | 6.35 | 42.4 | 4.9 | 48.5 | 3.1 |  | > 501 |  |  |  |  |  |  | IC50 [2]: 501 µM |
| CNC(=O)c1ncccc1Nc1nc(Nc2cc3c(cc2OC)CCCN3C(=O)CN(C)C)nc2[nH]ccc12 [GSK2220400A] |  | 10 | 30.5 | 3.8 | 0.770 | 200 | 0.0063 | 6.87 | 38.8 | 1.2 | 45.4 | 0.0 | 20 | > 501 | 28.6 | 8.7 °C | 40 | 6.9 | 13 | 6.31 | lower potency against GRK1 ([2]; relative to GSK2163632A): 100 fold |
| Fc1cccc(COc2ccc(Nc3ncnc4cc(-c5ccc[nH]5)sc34)cc2Cl)c1 [GW693881A] |  | > 1000 | 27.7 | 0.9 | 1.005 | 200 | 0.0063 | 6.93 | 40.0 | 2.5 | 47.4 | 2.0 | 1.3 | > 501 | 24.8 | 4.9 °C |  | 6.9 | 12 | 100 | inhibition pattern in kinase cross-screening, in words [12]: strong inhibition of many of the 221 kinases evaluated |
| COc1cc2c(cc1Nc1nc(Nc3ccsc3C(N)=O)c3cc[nH]c3n1)N(C(=O)CN(C)C)CCC2 [GSK2110236A] |  | 0.631 | 32.6 | 5.8 | 0.561 | 20 | 0.063 | 8.36 | 40.6 | 3.0 | 46.6 | 1.2 | 40 | > 501 | 18.5 | –1.4 °C | 631 | 8.3 | 7 | 3.16 | selectivity for GRK5 over GRK2 ([9]; from IC50 values of Table 2): 6 fold |
